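Cells were grown in 96-well plates and exposed to each compound for 48 hours at five concentrations; endpoints were interpolated linearly between bracketing concentrations, or set to the highest concentration if not reached. GI50: concentration for 50% inhibition of growth.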 Activity calls are given as the source filed them. Cut-off read from the data, not from the text of the source: active = GI50 up to about 1.1 µM and inactive = higher.
Tests used:
Test in all cases: DTP human tumour cell line panel, 48 h
[1] = system: UACC-62
[2] = system: TK-10
[3] = system: SF-539
[4] = system: Hs-578T
[5] = system: BT-549
[6] = system: NCI-H460
[7] = system: SF-295
[8] = system: M14
[9] = system: A498
[10] = system: SN12C
[11] = system: SF-268
[12] = system: RXF 393
[13] = system: SW-620
[14] = system: HCT-15
[15] = system: DU-145
[16] = system: CAKI-1
[17] = system: EKVX
[18] = system: RPMI-8226
[19] = system: CCRF-CEM

SMILES	GI50 [1]	GI50 [2]	GI50 [3]	GI50 [4]	GI50 [5]	GI50 [6]	GI50 [7]	GI50 [8]	GI50 [9]	GI50 [10]	GI50 [11]	GI50 [12]	GI50 [13]	GI50 [14] [µM]	GI50 [15]	GI50 [16]	GI50 [17]	GI50 [18]	GI50 [19]
O=C(NCCCCCCNC(=O)c1cc(-c2ccccc2)nc2ccccc12)c1cc(-c2ccccc2)nc2ccccc12	> 100 µM (inactive)	> 100 µM (inactive)	> 100 µM (inactive)	40.6 µM (inactive)	> 100 µM (inactive)	> 100 µM (inactive)	84.7 µM (inactive)	> 100 µM (inactive)	> 100 µM (inactive)	> 100 µM (inactive)	> 100 µM (inactive)	> 100 µM (inactive)	> 100 µM (inactive)	> 100	> 100 µM (inactive)	> 100 µM (inactive)	> 100 µM (inactive)	> 100 µM (inactive)	> 100 µM (inactive)
O=C1c2ccccc2C(=O)c2c1ccc1c2OCO1	> 100 µM (inactive)	> 100 µM (inactive)	> 100 µM (inactive)	> 100 µM (inactive)	> 100 µM (inactive)		> 100 µM (inactive)	> 100 µM (inactive)	> 100 µM (inactive)	> 100 µM (inactive)	> 100 µM (inactive)	> 100 µM (inactive)	> 100 µM (inactive)	> 100	> 100 µM (inactive)	> 100 µM (inactive)	> 100 µM (inactive)	> 100 µM (inactive)	> 10 µM (inactive)
CC1=CC2(O)OC3(CC2=C(C)C)C(C)CCC13 (centres undefined)	> 100 µM (inactive)	> 100 µM (inactive)	> 100 µM (inactive)	> 100 µM (inactive)	> 100 µM (inactive)		> 100 µM (inactive)	> 100 µM (inactive)	> 100 µM (inactive)	> 100 µM (inactive)	> 100 µM (inactive)	> 100 µM (inactive)	> 100 µM (inactive)	> 100	> 100 µM (inactive)	> 100 µM (inactive)	> 100 µM (inactive)	> 100 µM (inactive)	> 100 µM (inactive)
O=C1CC(Cl)c2c1csc2Br (centres undefined)	15.3 µM (inactive)	16 µM (inactive)	3 µM (inactive)	21.6 µM (inactive)	19.9 µM (inactive)	20.4 µM (inactive)	23.7 µM (inactive)	13.9 µM (inactive)	24.1 µM (inactive)	17.6 µM (inactive)	16.8 µM (inactive)	19 µM (inactive)	3.48 µM (inactive)	12.9	29.4 µM (inactive)	5.61 µM (inactive)	20.3 µM (inactive)	1.03 µM (active)	2.65 µM (inactive)
Cc1c(F)c(N)c2c(=O)cc(-c3ccc(NC(=O)C(N)CCCNC(=N)N)c(F)c3)oc2c1F (centres undefined)		0.146 µM (active)	16.7 µM (inactive)	28.5 µM (inactive)	21.8 µM (inactive)	0.146 µM (active)	> 37.6 µM (inactive)	31.7 µM (inactive)	0.0615 µM (active)	17.1 µM (inactive)	32.7 µM (inactive)	21.6 µM (inactive)	> 61.5 µM (inactive)	19.7	29.6 µM (inactive)	0.0792 µM (active)	17.2 µM (inactive)	> 33.5 µM (inactive)	> 88.3 µM (inactive)
CSc1c(C#N)c(=O)[nH]c2[nH]nc(C)c12	> 100 µM (inactive)	> 100 µM (inactive)	> 100 µM (inactive)	> 100 µM (inactive)	> 100 µM (inactive)	> 100 µM (inactive)		> 100 µM (inactive)	> 100 µM (inactive)	> 100 µM (inactive)	> 100 µM (inactive)	> 100 µM (inactive)	> 100 µM (inactive)	> 100	> 100 µM (inactive)	22.1 µM (inactive)	> 100 µM (inactive)	> 100 µM (inactive)	> 100 µM (inactive)
c1ccc(Nc2nnc(Cn3ccc4ccccc43)s2)cc1	88.5 µM (inactive)	76.6 µM (inactive)	35.6 µM (inactive)	65.6 µM (inactive)	> 100 µM (inactive)	47 µM (inactive)	15.9 µM (inactive)	59.8 µM (inactive)	> 100 µM (inactive)	> 100 µM (inactive)	56.8 µM (inactive)	73.5 µM (inactive)	87.3 µM (inactive)	38.5	92.9 µM (inactive)	22.4 µM (inactive)	50.8 µM (inactive)	48.5 µM (inactive)	49.3 µM (inactive)
COc1ccc(-c2c3c(n(C4OC(CO)C(O)C(O)C4O)c(=S)c2C#N)CC(C)(C)CC3=O)cc1 (centres undefined)	97.3 µM (inactive)	> 100 µM (inactive)	> 100 µM (inactive)	> 100 µM (inactive)	> 100 µM (inactive)	> 100 µM (inactive)	> 100 µM (inactive)	> 100 µM (inactive)	> 100 µM (inactive)	> 100 µM (inactive)	> 100 µM (inactive)	> 100 µM (inactive)		> 100	> 100 µM (inactive)	> 100 µM (inactive)		89.7 µM (inactive)	> 100 µM (inactive)
O=C(OCC1CCCN2CCCCC12)c1ccncc1 (centres undefined)	> 100 µM (inactive)	> 100 µM (inactive)	> 100 µM (inactive)	> 100 µM (inactive)	> 100 µM (inactive)	> 100 µM (inactive)	> 100 µM (inactive)	> 100 µM (inactive)	> 100 µM (inactive)	> 100 µM (inactive)	> 100 µM (inactive)	> 100 µM (inactive)	> 100 µM (inactive)	> 100	> 100 µM (inactive)	> 100 µM (inactive)	> 100 µM (inactive)	> 100 µM (inactive)	> 100 µM (inactive)
CCOC(=O)c1c(SCCN2CCCC2)n(-c2ccccc2)c(=S)n(-c2ccccc2)c1=O	2.79 µM (inactive)	1.67 µM (inactive)	2.38 µM (inactive)	4.7 µM (inactive)	5.37 µM (inactive)	5.81 µM (inactive)	28.3 µM (inactive)	1.75 µM (inactive)	10.4 µM (inactive)	1.71 µM (inactive)	4.85 µM (inactive)	1.74 µM (inactive)	2.6 µM (inactive)	2.21	1.68 µM (inactive)	2.29 µM (inactive)	13.9 µM (inactive)	2.18 µM (inactive)	0.951 µM (active)
CCOC(=O)CSc1nc(-c2ccc(Cl)cc2)c(C#N)c(=O)[nH]1	92 µM (inactive)	> 100 µM (inactive)	> 100 µM (inactive)	> 100 µM (inactive)	> 100 µM (inactive)	> 100 µM (inactive)	> 100 µM (inactive)	> 100 µM (inactive)	> 100 µM (inactive)	> 100 µM (inactive)	> 100 µM (inactive)	> 100 µM (inactive)	> 100 µM (inactive)	> 100	> 100 µM (inactive)	> 100 µM (inactive)	> 100 µM (inactive)	> 100 µM (inactive)	41.1 µM (inactive)
Cc1ccc(Cl)c2c(=O)c3ccc(N)cc3sc12	14.9 µM (inactive)	38.3 µM (inactive)	16 µM (inactive)	10.4 µM (inactive)	29.4 µM (inactive)	31.9 µM (inactive)	13.5 µM (inactive)	28.4 µM (inactive)	17 µM (inactive)	15.7 µM (inactive)	27.9 µM (inactive)	22.1 µM (inactive)		21.1	26.1 µM (inactive)	24.9 µM (inactive)	5.55 µM (inactive)	15 µM (inactive)	14.7 µM (inactive)
O=C(Nc1nc(C23CC4CC(CC(C4)C2)C3)cs1)c1cc2cc(Br)cc(Br)c2oc1=O	> 100 µM (inactive)	> 100 µM (inactive)	51.8 µM (inactive)	27.4 µM (inactive)	> 100 µM (inactive)	37 µM (inactive)	40.6 µM (inactive)		> 100 µM (inactive)	31.8 µM (inactive)	37.8 µM (inactive)	31 µM (inactive)	43.2 µM (inactive)	> 100	65.5 µM (inactive)	> 100 µM (inactive)	39.4 µM (inactive)	67.9 µM (inactive)	27.7 µM (inactive)
N#CC1=C(N)OC(c2ccc([N+](=O)[O-])cc2)C1(C#N)C#N (centres undefined)	8.71 µM (inactive)	13.2 µM (inactive)	15.1 µM (inactive)	25.9 µM (inactive)	17.1 µM (inactive)		33.7 µM (inactive)	16.7 µM (inactive)	14.4 µM (inactive)	14.5 µM (inactive)	23.3 µM (inactive)	7.23 µM (inactive)	13.2 µM (inactive)	10.5	17.9 µM (inactive)	0.785 µM (active)	14.2 µM (inactive)	7.78 µM (inactive)	2.57 µM (inactive)
COc1ccc2[nH]c(CCNC(=O)c3cc([N+](=O)[O-])cc([N+](=O)[O-])c3)cc2c1	36.1 µM (inactive)	46.8 µM (inactive)	29.8 µM (inactive)	58.9 µM (inactive)	> 100 µM (inactive)	> 100 µM (inactive)		> 100 µM (inactive)	> 100 µM (inactive)	56 µM (inactive)	25 µM (inactive)	18.1 µM (inactive)	> 100 µM (inactive)	> 100	> 100 µM (inactive)	26.1 µM (inactive)		> 100 µM (inactive)	> 100 µM (inactive)
